In patent US20240092758A1, “IMIDAZOLO INDAZOLE COMPOUNDS AS JAK INHIBITORS” (Theravance Biopharma R&D IP, LLC, priority 2021, published 2024):

Legend:
JAK1 = JAK1 (Homo sapiens (Human), UniProt P23458); test: Biochemical JAK kinase assay (LanthaScreen), JAK1; settings: for Ki: read-out: JAK1 pKi (converted)
Summary of the method: (§1)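 LanthaScreen format: phospho-STAT1 (pTyr701) detected with 2 nM Tb antibody after 10 mM EDTA quench. Kinase step used Km-level ATP and 200 nM STAT1 peptide, 1 h at ambient after 1 h pre-incubation. Inhibition fitted to IC50, reported as pKi.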

JAK2 = JAK2 (Homo sapiens (Human), UniProt O60674); test: Biochemical JAK kinase assay (LanthaScreen), JAK2; settings: for Ki: read-out: JAK2 pKi (converted)
JAK2, sequence (O60674 whole entry): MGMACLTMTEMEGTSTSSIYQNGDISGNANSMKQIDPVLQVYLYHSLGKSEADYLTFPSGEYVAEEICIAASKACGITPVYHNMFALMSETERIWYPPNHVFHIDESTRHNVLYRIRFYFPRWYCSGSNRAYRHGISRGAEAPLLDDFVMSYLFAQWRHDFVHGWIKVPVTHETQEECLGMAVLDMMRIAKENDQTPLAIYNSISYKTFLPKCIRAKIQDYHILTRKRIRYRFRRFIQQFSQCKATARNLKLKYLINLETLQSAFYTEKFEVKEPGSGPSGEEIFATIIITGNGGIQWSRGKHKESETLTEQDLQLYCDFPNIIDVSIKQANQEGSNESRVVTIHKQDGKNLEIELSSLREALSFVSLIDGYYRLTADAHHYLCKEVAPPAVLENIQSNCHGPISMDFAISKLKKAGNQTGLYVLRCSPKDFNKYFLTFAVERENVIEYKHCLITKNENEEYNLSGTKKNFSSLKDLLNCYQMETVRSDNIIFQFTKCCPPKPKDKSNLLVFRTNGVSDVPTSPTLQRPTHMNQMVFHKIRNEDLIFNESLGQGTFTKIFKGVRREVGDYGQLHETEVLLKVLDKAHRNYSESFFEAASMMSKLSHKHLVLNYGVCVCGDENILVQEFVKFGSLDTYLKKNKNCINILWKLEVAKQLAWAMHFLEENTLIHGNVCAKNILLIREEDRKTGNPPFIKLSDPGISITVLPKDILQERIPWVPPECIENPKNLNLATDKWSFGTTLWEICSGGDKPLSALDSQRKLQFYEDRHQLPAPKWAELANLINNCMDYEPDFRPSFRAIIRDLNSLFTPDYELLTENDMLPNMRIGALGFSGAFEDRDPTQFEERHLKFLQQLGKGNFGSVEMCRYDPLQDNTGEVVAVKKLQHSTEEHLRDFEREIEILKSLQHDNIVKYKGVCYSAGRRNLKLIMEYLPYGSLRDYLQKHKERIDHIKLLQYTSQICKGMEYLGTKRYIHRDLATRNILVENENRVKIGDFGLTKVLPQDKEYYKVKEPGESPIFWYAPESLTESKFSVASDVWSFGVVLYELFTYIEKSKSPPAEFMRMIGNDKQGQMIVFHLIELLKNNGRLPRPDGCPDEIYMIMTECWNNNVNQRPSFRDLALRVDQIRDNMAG
Summary of the method: as §1

[1] = tested on: IL-13 induced STAT6 phosphorylation in BEAS-2B human lung epithelial cells; test: Cellular JAKI potency assay (BEAS-2B); type: cell-based; settings: Homo sapiens, BEAS-2B, BEAS-2B cells, read-out: BEAS2B pIC50 (converted)
Summary of the method: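 AlphaLISA SureFire detection of Tyr641 pSTAT6 in lysates gave IC50s (4-parameter fit, expressed as pIC50). Cells: human BEAS-2B, exposed 1 h at 37 °C to compound dose series at 0.1% DMSO, then 30 min to IL-13 added at 80 ng/mL in HEPES-buffered HBSS with BSA.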

JAK1, sequence (P23458 whole entry): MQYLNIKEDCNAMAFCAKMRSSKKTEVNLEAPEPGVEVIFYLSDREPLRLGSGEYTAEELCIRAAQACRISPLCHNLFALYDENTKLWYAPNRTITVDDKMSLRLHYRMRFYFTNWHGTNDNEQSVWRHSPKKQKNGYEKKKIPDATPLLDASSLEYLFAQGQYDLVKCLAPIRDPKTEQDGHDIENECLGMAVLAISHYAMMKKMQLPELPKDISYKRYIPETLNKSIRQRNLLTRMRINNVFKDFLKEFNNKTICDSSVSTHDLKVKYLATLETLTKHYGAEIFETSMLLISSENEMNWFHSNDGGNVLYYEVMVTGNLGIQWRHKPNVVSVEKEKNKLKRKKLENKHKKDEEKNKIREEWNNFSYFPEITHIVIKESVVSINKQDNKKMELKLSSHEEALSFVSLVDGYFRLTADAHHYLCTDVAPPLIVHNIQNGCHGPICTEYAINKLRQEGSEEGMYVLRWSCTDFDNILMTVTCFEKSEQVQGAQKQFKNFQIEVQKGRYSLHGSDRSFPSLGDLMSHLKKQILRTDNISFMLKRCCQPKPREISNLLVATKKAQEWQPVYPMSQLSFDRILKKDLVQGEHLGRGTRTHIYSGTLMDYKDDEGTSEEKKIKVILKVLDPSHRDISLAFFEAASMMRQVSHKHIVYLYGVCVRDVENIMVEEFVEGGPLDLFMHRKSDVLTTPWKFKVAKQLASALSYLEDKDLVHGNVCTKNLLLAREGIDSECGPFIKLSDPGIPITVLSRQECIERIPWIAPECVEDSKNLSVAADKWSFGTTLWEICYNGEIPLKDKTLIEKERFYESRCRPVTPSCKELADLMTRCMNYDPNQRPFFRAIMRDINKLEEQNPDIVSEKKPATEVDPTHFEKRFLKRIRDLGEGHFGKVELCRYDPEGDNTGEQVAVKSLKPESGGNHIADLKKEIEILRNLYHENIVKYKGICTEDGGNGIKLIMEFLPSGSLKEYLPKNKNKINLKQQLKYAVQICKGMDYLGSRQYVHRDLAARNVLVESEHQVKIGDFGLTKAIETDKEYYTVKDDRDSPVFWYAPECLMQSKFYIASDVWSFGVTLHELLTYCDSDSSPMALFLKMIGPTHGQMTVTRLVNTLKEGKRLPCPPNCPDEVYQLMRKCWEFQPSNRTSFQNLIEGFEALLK

| Structure (SMILES) | Ki (JAK1) | Ki (JAK2) | IC50 [1] | JAK1 pKi (JAK1) | JAK2 pKi (JAK2) |
| --- | --- | --- | --- | --- | --- |
| CCc1cc(O)ccc1-c1ccc2c(-c3nc(C4=CCNC4C)c[nH]3)n[nH]c2c1F (stereo not drawn) [Example 313] | 0.1 to 1 nM | 0.1 to 1 nM | 10 to 31.6 nM |  |  |
| CCc1cc(O)ccc1-c1ccc2c(-c3nc(C4=C[C@H](CCO)NC4)c[nH]3)n[nH]c2c1F [Example 314] | 0.1 to 1 nM | 0.1 to 1 nM | 10 to 31.6 nM |  |  |
| CCc1cc(O)ccc1-c1ccc2c(-c3nc(C4=C(C(=O)OC(C)C)CCNC4)c[nH]3)n[nH]c2c1F [Example 315] | 0.1 to 1 nM | 0.1 to 1 nM | 10 to 31.6 nM |  |  |
| CCCCN1CC=C(c2c[nH]c(-c3n[nH]c4c(F)c(-c5ccc(O)cc5CC)ccc34)n2)C1 [Example 316] |  |  | 10 to 31.6 nM | A (A represents a pKi value ≥10 (Ki≤0.1 nM)) | A (A represents a pKi value ≥10 (Ki≤0.1 nM)) |
| CCc1cc(O)ccc1-c1ccc2c(-c3nc(C4=CCN(CCNC(=O)C5CCC5)CC4)c[nH]3)n[nH]c2c1F [Example 317] | 0.1 to 1 nM | 0.1 to 1 nM | 10 to 31.6 nM |  |  |
| CCc1cc(O)ccc1-c1ccc2c(-c3nc(C4=CCN(C[C@@H](C)CO)C4)c[nH]3)n[nH]c2c1F [Example 318] | 0.1 to 1 nM | 0.1 to 1 nM | 10 to 31.6 nM |  |  |
| CCc1cc(O)ccc1-c1ccc2c(-c3nc(C4=CCN[C@H](C)C4)c[nH]3)n[nH]c2c1F [Example 319] | 0.1 to 1 nM | 0.1 to 1 nM | 10 to 31.6 nM |  |  |
| CCc1cc(O)ccc1-c1ccc2c(-c3nc(C4=CCN(CCC5(O)CC5)C4)c[nH]3)n[nH]c2c1F [Example 320] | 0.1 to 1 nM |  | 10 to 31.6 nM |  | A (A represents a pKi value ≥10 (Ki≤0.1 nM)) |
| CCc1cc(O)ccc1-c1ccc2c(-c3nc(C4=CCN(CCC5(O)CC5)CC4)c[nH]3)n[nH]c2c1F [Example 322] | 0.1 to 1 nM | 0.1 to 1 nM | 10 to 31.6 nM |  |  |
| CCOC(=O)C1=C(c2c[nH]c(-c3n[nH]c4c(F)c(-c5ccc(O)cc5CC)ccc34)n2)CCNC1 [Example 323] | 0.1 to 1 nM | 0.1 to 1 nM | 10 to 31.6 nM |  |  |
| CCc1cc(O)ccc1-c1ccc2c(-c3nc(C4=CCNCC4C)c[nH]3)n[nH]c2c1F (stereo not drawn) [Example 324] | 0.1 to 1 nM | 0.1 to 1 nM | 10 to 31.6 nM |  |  |
| CCc1cc(O)ccc1-c1ccc2c(-c3nc(C4=C(C(=O)OC(C)C)CNCC4)c[nH]3)n[nH]c2c1F [Example 325] | 0.1 to 1 nM | 0.1 to 1 nM | 10 to 31.6 nM |  |  |
| CCc1cc(O)ccc1-c1ccc2c(-c3nc(C4=CCN(Cc5cnoc5)CC4)c[nH]3)n[nH]c2c1F [Example 326] | 0.1 to 1 nM | 0.1 to 1 nM | 10 to 31.6 nM |  |  |
| CCc1cc(O)ccc1-c1ccc2c(-c3nc(C4=CC(C)CNC4)c[nH]3)n[nH]c2c1F (stereo not drawn) [Example 327] | 0.1 to 1 nM | 0.1 to 1 nM | 10 to 31.6 nM |  |  |
| CCc1cc(O)c(C)cc1-c1ccc2c(-c3nc(C4=CCNC4)c[nH]3)n[nH]c2c1F [Example 328] | 0.1 to 1 nM | 1 to 10 nM | 10 to 31.6 nM |  |  |
| CCc1cc(O)ccc1-c1ccc2c(-c3nc(C4=C[C@H](CO)N(CCC(C)(C)O)C4)c[nH]3)n[nH]c2c1F [Example 329] |  |  | 10 to 31.6 nM | A (A represents a pKi value ≥10 (Ki≤0.1 nM)) | A (A represents a pKi value ≥10 (Ki≤0.1 nM)) |
| CCc1cc(O)ccc1-c1ccc2c(-c3nc(C4=CCN([C@H]5CC[C@](C)(O)CC5)C4)c[nH]3)n[nH]c2c1F [Example 330] |  | 0.1 to 1 nM | 10 to 31.6 nM | A (A represents a pKi value ≥10 (Ki≤0.1 nM)) |  |
| CCc1cc(O)ccc1-c1ccc2c(-c3nc(C4=CCN(C5CCC(CO)CC5)C4)c[nH]3)n[nH]c2c1F (stereo not drawn) [Example 331] |  | 0.1 to 1 nM | 10 to 31.6 nM | A (A represents a pKi value ≥10 (Ki≤0.1 nM)) |  |
| CCc1cc(O)ccc1-c1ccc2c(-c3nc(C4=CCN(C[C@H](C)CO)C4)c[nH]3)n[nH]c2c1F [Example 332] | 0.1 to 1 nM | 0.1 to 1 nM | 10 to 31.6 nM |  |  |
| CCc1cc(O)ccc1-c1ccc2c(-c3nc(C4=CCN(C(=O)CN(C)C)C4)c[nH]3)n[nH]c2c1F [Example 333] | 0.1 to 1 nM |  | 10 to 31.6 nM |  | A (A represents a pKi value ≥10 (Ki≤0.1 nM)) |
| CCc1cc(O)ccc1-c1ccc2c(-c3nc(C4=CCN(CCC5(O)CCC5)CC4)c[nH]3)n[nH]c2c1F [Example 334] | 0.1 to 1 nM | 0.1 to 1 nM | 10 to 31.6 nM |  |  |
| CCc1cc(O)ccc1-c1ccc2c(-c3nc(C4=CC5CN(C)CCN5CC4)c[nH]3)n[nH]c2c1F (stereo not drawn) [Example 335] | 0.1 to 1 nM | 0.1 to 1 nM | 10 to 31.6 nM |  |  |
| CCc1cc(O)ccc1-c1ccc2c(-c3nc(C4=CC(C)(C)NC4)c[nH]3)n[nH]c2c1F [Example 336] | 0.1 to 1 nM | 0.1 to 1 nM | 10 to 31.6 nM |  |  |

| Structure (SMILES) | Ki (JAK1) | Ki (JAK2) | IC50 [1] | JAK1 pKi (JAK1) | JAK2 pKi (JAK2) |
| --- | --- | --- | --- | --- | --- |
| CCc1cc(O)ccc1-c1ccc2c(-c3nc(C4=CC[C@H](C)N([C@H]5C[C@H](O)C5)C4)c[nH]3)n[nH]c2c1F [Example 337] | 0.1 to 1 nM | 0.1 to 1 nM | 10 to 31.6 nM |  |  |
| CCc1cc(O)ccc1-c1ccc2c(-c3nc(C4=CCCN(CCC5(O)CC5)C4)c[nH]3)n[nH]c2c1F [Example 338] | 0.1 to 1 nM | 0.1 to 1 nM | 10 to 31.6 nM |  |  |
| CCc1cc(O)ccc1-c1ccc2c(-c3nc(C4=C[C@@H](C)NCC4)c[nH]3)n[nH]c2c1F [Example 339] | 0.1 to 1 nM | 0.1 to 1 nM | 10 to 31.6 nM |  |  |
| CCc1cc(O)ccc1-c1ccc2c(-c3nc(C4=C[C@H](CC(=O)N(CC)CC)NC4)c[nH]3)n[nH]c2c1F [Example 340] |  |  | 10 to 31.6 nM | A (A represents a pKi value ≥10 (Ki≤0.1 nM)) | A (A represents a pKi value ≥10 (Ki≤0.1 nM)) |
| CCc1cc(O)ccc1-c1ccc2c(-c3nc(C4=CCN([C@H]5CC[C@@](C)(O)CC5)C4)c[nH]3)n[nH]c2c1F [Example 341] |  |  | 10 to 31.6 nM | A (A represents a pKi value ≥10 (Ki≤0.1 nM)) | A (A represents a pKi value ≥10 (Ki≤0.1 nM)) |
| CCc1cc(O)ccc1-c1ccc2c(-c3nc(C4=CCN(CCC(=O)NC)C4)c[nH]3)n[nH]c2c1F [Example 342] | 0.1 to 1 nM | 0.1 to 1 nM | 10 to 31.6 nM |  |  |
| CCc1cc(O)ccc1-c1ccc2c(-c3nc(C4=CCNC5(CC5)C4)c[nH]3)n[nH]c2c1 [Example 343] | 0.1 to 1 nM | 0.1 to 1 nM | 10 to 31.6 nM |  |  |
| CCc1cc(O)ccc1-c1ccc2c(-c3nc(C4=C[C@@H](CO)N(C)C4)c[nH]3)n[nH]c2c1F [Example 344] | 0.1 to 1 nM | 0.1 to 1 nM | 10 to 31.6 nM |  |  |
| CCc1cc(O)ccc1-c1ccc2c(-c3nc(C4=CCNC(CC)C4)c[nH]3)n[nH]c2c1F (stereo not drawn) [Example 346] | 1 to 10 nM | 0.1 to 1 nM | 10 to 31.6 nM |  |  |
| CCc1cc(O)ccc1-c1ccc2c(-c3nc(C4=CCN[C@@H](CO)C4)c[nH]3)n[nH]c2c1F [Example 347] |  |  | 31.6 to 100 nM | A (A represents a pKi value ≥10 (Ki≤0.1 nM)) | A (A represents a pKi value ≥10 (Ki≤0.1 nM)) |
| CCc1cc(O)ccc1-c1ccc2c(-c3nc(C4=C[C@H](CO)NCC4)c[nH]3)n[nH]c2c1F [Example 348] | 0.1 to 1 nM |  | 31.6 to 100 nM |  | A (A represents a pKi value ≥10 (Ki≤0.1 nM)) |
| CCc1cc(O)ccc1-c1ccc2c(-c3nc(C4=CCN(C(=O)CNC)C4)c[nH]3)n[nH]c2c1F [Example 349] | 0.1 to 1 nM |  | 31.6 to 100 nM |  | A (A represents a pKi value ≥10 (Ki≤0.1 nM)) |
| CCc1cc(O)ccc1-c1ccc2c(-c3nc(C4=CCN(C(=O)CN5CCCC5)C4)c[nH]3)n[nH]c2c1F [Example 351] | 0.1 to 1 nM |  | 31.6 to 100 nM |  | A (A represents a pKi value ≥10 (Ki≤0.1 nM)) |
| CCc1cc(O)ccc1-c1ccc2c(-c3nc(C4=CCNC5(CC5)C4)c[nH]3)n[nH]c2c1F [Example 352] | 0.1 to 1 nM | 0.1 to 1 nM | 31.6 to 100 nM |  |  |
| CCOC(=O)C1=C(c2c[nH]c(-c3n[nH]c4cc(-c5ccc(O)cc5CC)ccc34)n2)CCNC1 [Example 354] | 0.1 to 1 nM | 0.1 to 1 nM | 31.6 to 100 nM |  |  |
| CCc1cc(O)ccc1-c1ccc2c(-c3nc(C4=C[C@H](CO)N(Cc5cnoc5)C4)c[nH]3)n[nH]c2c1F [Example 355] | 0.1 to 1 nM | 0.1 to 1 nM | 31.6 to 100 nM |  |  |
| CCc1cc(O)ccc1-c1ccc2c(-c3nc(C4=CCNC(C(C)(C)C)C4)c[nH]3)n[nH]c2c1 (stereo not drawn) [Example 356] | 0.1 to 1 nM | 0.1 to 1 nM | 31.6 to 100 nM |  |  |
| Oc1ccc(-c2ccc3c(-c4nc(C5=CCNC5)c[nH]4)n[nH]c3c2F)c(CC(F)(F)F)c1 [Example 357] | 0.1 to 1 nM | 0.1 to 1 nM | 31.6 to 100 nM |  |  |
| CCc1cc(O)ccc1-c1ccc2c(-c3nc(C4=CC5CNCCN5CC4)c[nH]3)n[nH]c2c1F (stereo not drawn) [Example 358] | 0.1 to 1 nM | 0.1 to 1 nM | 31.6 to 100 nM |  |  |
| CCc1cc(O)ccc1-c1ccc2c(-c3nc(C4=CCN([C@H]5CC[C@@](O)(C(F)(F)F)CC5)C4)c[nH]3)n[nH]c2c1F [Example 359] | 1 to 10 nM | 0.1 to 1 nM | 31.6 to 100 nM |  |  |
| CCc1cc(O)ccc1-c1ccc2c(-c3nc(C4=C[C@H](CC(=O)N5CCCC5)NC4)c[nH]3)n[nH]c2c1F [Example 360] |  |  | 31.6 to 100 nM | A (A represents a pKi value ≥10 (Ki≤0.1 nM)) | A (A represents a pKi value ≥10 (Ki≤0.1 nM)) |
| CCc1cc(O)ccc1-c1ccc2c(-c3nc(C4=C[C@H](CC(=O)N5CCOCC5)NC4)c[nH]3)n[nH]c2c1F [Example 361] | 0.1 to 1 nM |  | 31.6 to 100 nM |  | A (A represents a pKi value ≥10 (Ki≤0.1 nM)) |
